# ChEMBL document CHEMBL1149470, “Identification and structure-based optimization of novel dihydropyrones as potent HCV RNA polymerase inhibitors” (Bioorg Med Chem Lett, 2006)
# Calls of active or inactive are those of the source. The rule behind the calls is not given here.
# Tests used:
# Hepatitis C virus = assay: Antiviral activity against HCV 1b in Huh7 cell line upto 10 uM by replicon assay; type: functional, cell-based; settings: Hepacivirus hominis; genotype 1b; Huh-7
# [1] = biological target: RNA-directed RNA polymerase (Hepacivirus hominis, UniProt O39930); assay: Inhibitory activity against HCV 1b BK NS5B deltaC21 RNA polymerase; parameters: species or system Hepatitis C virus subtype 1b
# Chain of RNA-directed RNA polymerase (O39930 whole entry): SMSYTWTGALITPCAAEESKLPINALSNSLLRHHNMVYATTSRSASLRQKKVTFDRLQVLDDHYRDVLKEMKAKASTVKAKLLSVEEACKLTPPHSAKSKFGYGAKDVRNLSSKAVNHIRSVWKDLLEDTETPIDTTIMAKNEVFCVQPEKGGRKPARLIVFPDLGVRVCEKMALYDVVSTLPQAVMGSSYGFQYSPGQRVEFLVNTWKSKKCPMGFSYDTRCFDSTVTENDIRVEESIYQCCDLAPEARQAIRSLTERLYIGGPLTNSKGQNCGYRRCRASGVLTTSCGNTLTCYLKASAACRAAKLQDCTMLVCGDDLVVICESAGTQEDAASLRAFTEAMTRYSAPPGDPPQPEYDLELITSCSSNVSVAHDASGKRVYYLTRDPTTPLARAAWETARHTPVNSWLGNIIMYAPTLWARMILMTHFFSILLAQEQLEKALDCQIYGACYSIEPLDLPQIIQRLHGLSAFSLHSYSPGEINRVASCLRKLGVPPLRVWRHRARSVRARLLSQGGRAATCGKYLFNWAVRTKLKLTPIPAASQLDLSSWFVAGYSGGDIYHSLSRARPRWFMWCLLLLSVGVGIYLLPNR
IC50 [1] [nM],Structure (SMILES),Activity (Hepatitis C virus)
790,CCOc1ccc(CCC2(C3CCCC3)CC(=O)CC(=O)O2)cc1F (configuration not stated),inactive
3600,CCc1cccc(CCC2(C3CCCC3)CC(=O)CC(=O)O2)c1 (configuration not stated),inactive
1800,CC(C)c1cccc(CCC2(C3CCCC3)CC(=O)CC(=O)O2)c1 (configuration not stated),inactive
9700,COc1ccc(CCC2(C3CCCC3)CC(=O)CC(=O)O2)cc1 (configuration not stated),inactive
1700,CC(C)Oc1ccc(CCC2(C3CCCC3)CC(=O)CC(=O)O2)cc1 (configuration not stated),inactive
280,COc1ccc(CCC2(C3CCCC3)CC(=O)C(Sc3nnnn3C)=C(O)O2)cc1Cl (configuration not stated),inactive
890,COc1ccc(CCC2(C3CCCC3)CC(=O)CC(=O)O2)cc1F (configuration not stated),inactive
52000,O=C1CC(=O)OC(CCc2ccc(O)cc2)(C2CCCCC2)C1 (configuration not stated),inactive
38,COc1ccc(CCC2(C3CCCC3)CC(=O)C(Sc3nncn3C)=C(O)O2)cc1Cl (configuration not stated),inactive
140,COc1ccc(CCC2(C3CCCC3)CC(=O)C(Sc3nccn3C)=C(O)O2)cc1Cl (configuration not stated),inactive
48000,O=C1CC(=O)OC(CCc2ccccc2)(C2CCCC2)C1 (configuration not stated),inactive
930,Cc1cc(SC2=C(O)OC(CCc3ccc(O)cc3)(C3CCCC3)CC2=O)c(C(C)(C)C)cc1N (configuration not stated),inactive
1000,COc1ccc(CCC2(C3CCCC3)CC(=O)CC(=O)O2)cc1Cl (configuration not stated),inactive
560,COc1ccc(CCC2(C3CCCC3)CC(=O)C(Sc3ccccc3)=C(O)O2)cc1Cl (configuration not stated),inactive
4300,CC(C)c1ccc(CCC2(C3CCCC3)CC(=O)CC(=O)O2)cc1 (configuration not stated),inactive
2900,CCOc1ccc(CCC2(C3CCCC3)CC(=O)CC(=O)O2)cc1 (configuration not stated),inactive
130,COc1ccc(CCC2(C3CCCC3)CC(=O)C(Sc3ccc(O)cc3)=C(O)O2)cc1Cl (configuration not stated),inactive
93000,O=C1CC(=O)OC(CCc2ccc(O)cc2)(C2CCC2)C1 (configuration not stated),inactive
5000,O=C1CC(=O)OC(CCc2cccc(Cl)c2)(C2CCCC2)C1 (configuration not stated),inactive
23000,Cc1cccc(CCC2(C3CCCC3)CC(=O)CC(=O)O2)c1 (configuration not stated),inactive
8200,O=C1CC(=O)OC(CCc2ccc(O)cc2)(C2CCCC2)C1 (configuration not stated),inactive
,CC(C)Oc1ccc(CCC2(C3CCCC3)CC(=O)CC(=O)O2)cc1F (configuration not stated),inactive

Structure (SMILES),IC50 [1] [nM],Activity (Hepatitis C virus)
CCCC1(CCc2ccc(OC)cc2)CC(=O)CC(=O)O1 (configuration not stated),> 50000,inactive
CC1(CCc2ccc(O)cc2)CC(=O)CC(=O)O1 (configuration not stated),> 100000,inactive
